Source: US20130217664A1, “NOVEL COMPOUNDS USEFUL FOR THE TREATMENT OF DEGENERATIVE AND INFLAMMATORY DISEASES” (priority 2012, published 2013)

Tests used:
human JAK1 = biological target: T1, human JAK1 (Homo sapiens, UniProt P23458); test: JAK1 inhibition assay (polyGT substrate / Ulight-JAK1 peptide); assay type: biochemical; conditions: recombinant human JAK1 catalytic domain; polyGT or Ulight-JAK1 peptide assay
T1 construct: catalytic domain, amino acids 866-1154; catalog number PV4774; purchased Invitrogen PV4774
T1 sequence (P23458 866-1154): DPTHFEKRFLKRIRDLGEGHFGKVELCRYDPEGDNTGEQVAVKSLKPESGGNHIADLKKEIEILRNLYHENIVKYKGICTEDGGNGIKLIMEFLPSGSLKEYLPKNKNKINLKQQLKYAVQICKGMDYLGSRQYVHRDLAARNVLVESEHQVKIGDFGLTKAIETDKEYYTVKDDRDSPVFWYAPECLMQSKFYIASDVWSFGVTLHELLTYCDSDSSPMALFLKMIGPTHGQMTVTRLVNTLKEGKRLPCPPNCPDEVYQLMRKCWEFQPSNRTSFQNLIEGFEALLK
Outline: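 Two formats. PolyGT radiometric: 45 min at 30 °C, stopped with phosphoric acid, counted as cpm. Ulight-JAK1 peptide: 60 min at room temperature, stopped with Eu-anti-phosphotyrosine/EDTA, read as RFU. Percent inhibition normalised to vehicle and 10 μM staurosporine.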

[1] = system: pSTAT1(2)-luciferase reporter in HeLa cells triggered with human OSM; test: JAK-STAT signalling assay; assay type: cell-based; conditions: Homo sapiens, HeLa, HeLa cells, pSTAT1(2)-luciferase reporter, human OSM 33 ng/mL; read-out: JAK-STAT IC50
Method: JAK-STAT Signalling Assay
HeLa cells were maintained in Dulbecco's Modified Eagle's Medium (DMEM) containing 10% heat inactivated fetal calf serum, 100 U/mL penicillin and 100 μg/mL streptomycin. HeLa cells were used at 70% confluence for transfection. 20,000 cells in 87 μL cell culture medium were transiently transfected with 40 ng pSTAT1(2)-luciferase reporter (Panomics), 8 ng of LacZ reporter as internal control reporter and 52 ng of pBSK using 0.32 μL Jet-PEI (Polyplus) as transfection reagent per well in 96-well plate format. After overnight incubation at 37° C., 5% CO2, transfection medium was removed. 81 μL of DMEM+1.5% heat inactivated fetal calf serum was added. 9 μL compound at 10× concentration was added for 60 min and then 10 μL of human OSM (Peprotech) at 33 ng/mL final concentration.
After overnight incubation at 37° C., 5% CO2 cells were lysed by adding 100 μL lysis buffer/well (PBS, 0.9 mM CaCl2, 0.5 mM MgCl2, 10% Trehalose, 0.05% Tergitol NP9, 0.3% BSA).
40 μL of cell lysate was used to read β-galactosidase activity by adding 180 μL β-Gal solution (30 μL ONPG 4 mg/mL+150 μL β-Galactosidase buffer (0.06 M Na2HPO4, 0.04 M NaH2PO4, 1 mM MgCl2)) for 20 min.
Luciferase activity was measured using 40 μL cell lysate plus 40 μL of Steadylite as described by the manufacturer (Perkin Elmer), on the Envision (Perkin Elmer).
The positive and negative controls were used to calculate z′ and ‘percent inhibition’ (PIN) values.
Percentage inhibition=((fluorescence determined in the presence of vehicle−fluorescence determined for sample with test compound present)divided by(fluorescence determined in the presence of vehicle−fluorescence determined for sample without trigger))*100.
PIN values were plotted for compounds tested in dose-response and EC50 values were derived.

human JAK3 = biological target: T2, human JAK3 (Homo sapiens, UniProt P52333); test: JAK3 inhibition assay; assay type: biochemical; conditions: recombinant human JAK3 catalytic domain; polyGT substrate
T2 construct: catalytic domain (amino acids 781-1124; catalog number PV3855); purchased Invitrogen PV3855
T2 sequence (P52333 781-1124): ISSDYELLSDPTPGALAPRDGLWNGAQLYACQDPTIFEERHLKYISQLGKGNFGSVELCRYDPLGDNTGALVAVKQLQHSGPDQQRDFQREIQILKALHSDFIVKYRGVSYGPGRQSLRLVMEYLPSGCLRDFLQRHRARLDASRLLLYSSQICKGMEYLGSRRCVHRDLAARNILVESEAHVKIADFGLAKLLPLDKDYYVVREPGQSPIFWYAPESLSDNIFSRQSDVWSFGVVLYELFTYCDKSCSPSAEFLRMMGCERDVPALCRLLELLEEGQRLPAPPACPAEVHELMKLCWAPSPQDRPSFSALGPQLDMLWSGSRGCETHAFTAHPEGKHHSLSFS
Outline: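 Radiometric kinase assay: 0.5 ng JAK3 with 2.5 μg polyGT in Tris pH 7.5/MgCl2 buffer, 1 μM ATP plus 0.25 μCi 33P-γ-ATP, 1% DMSO, 45 min at 30 °C, stopped with phosphoric acid.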

human TYK2 = biological target: T3, human TYK2 (Homo sapiens, UniProt P29597); test: TYK2 inhibition assay; assay type: biochemical; conditions: recombinant human TYK2 catalytic domain, polyGT substrate
T3 construct: catalytic domain (amino acids 871-1187; catalog number 08-147); purchased Carna Biosciences 08-147
T3 sequence (P29597 871-1187): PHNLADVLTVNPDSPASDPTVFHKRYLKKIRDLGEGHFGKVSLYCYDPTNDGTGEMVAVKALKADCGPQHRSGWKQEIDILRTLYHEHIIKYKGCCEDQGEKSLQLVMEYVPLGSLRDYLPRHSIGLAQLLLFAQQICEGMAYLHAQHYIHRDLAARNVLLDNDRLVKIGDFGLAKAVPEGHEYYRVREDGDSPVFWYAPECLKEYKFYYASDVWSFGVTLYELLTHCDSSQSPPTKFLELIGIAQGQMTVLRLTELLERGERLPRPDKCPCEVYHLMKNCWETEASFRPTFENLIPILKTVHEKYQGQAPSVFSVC
Outline: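 Radiometric kinase reaction run 90 min at 30 °C, stopped with phosphoric acid, washed and scintillation-counted.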

| Compound | IC50 (human JAK1) | IC50 [1] | IC50 (human JAK3) | IC50 (human TYK2) |
| --- | --- | --- | --- | --- |
| CCc1cc(-c2ccccc2)ccc1N(C)c1cc2c(cn1)ncn2C [Compound 164, N-(3-ethylbiphenyl-4-yl)-N,1-dimethyl-1H-imidazo[4,5-c]pyridin-6-amine] | 0.01 to 100 nM | 501 to 1000 nM | 101 to 500 nM | 0.01 to 100 nM |
| CCc1cc(C2=CCN(C(C)=O)CC2)ccc1N(C)c1cc2c(cn1)ncn2C [Compound 168, 1-(4-(3-ethyl-4-(methyl(1-methyl-1H-imidazo[4,5-c]pyridin-6-yl)amino)phenyl)-5,6-dihydropyridin-1(2H)-yl)ethanone] | 0.01 to 100 nM | 1 to 500 nM | 101 to 500 nM | 0.01 to 100 nM |
| CCNC(=O)N1CC=C(c2ccc(N(C)c3cc4c(cn3)ncn4C)c(CC)c2)CC1 [Compound 172, N-ethyl-4-(3-ethyl-4-(methyl(1-methyl-1H-imidazo[4,5-c]pyridin-6-yl)amino)phenyl)-5,6-dihydropyridine-1(2H)-carboxamide] | 0.01 to 100 nM | 1 to 500 nM | 101 to 500 nM | 0.01 to 100 nM |
| CCc1cc(-c2nnc(C)o2)ccc1N(C)c1cc2c(cn1)ncn2C [Compound 177, N-(2-Ethyl-4-(5-methyl-1,3,4-oxadiazol-2-yl)phenyl)-N,1-dimethyl-1H-imidazo[4,5-d]pyridin-6-amine] | 0.01 to 100 nM | 501 to 1000 nM | > 1000 nM | 0.01 to 100 nM |
| CCc1cc(-c2nc(C)no2)ccc1N(C)c1cc2c(cn1)ncn2C [Compound 178, N-(2-Ethyl-4-(3-methyl-1,2,4-oxadiazol-5-yl)phenyl)-N,1-dimethyl-1H-imidazo[4,5-d]pyridin-6-amine] | 0.01 to 100 nM | 501 to 1000 nM | > 1000 nM | 101 to 500 nM |
| CCc1cc(-c2cncc(C#N)c2)ccc1N(C)c1cc2c(cn1)ncn2C [Compound 189, 5-(3-ethyl-4-(methyl(1-methyl-1H-imidazo[4,5-c]pyridin-6-yl)amino)phenyl)nicotino-nitrile] | 0.01 to 100 nM | > 1000 nM | > 1000 nM | 101 to 500 nM |
| CCc1cc(CNC(=O)OC)ccc1N(C)c1cc2c(cn1)ncn2C [Compound 191, Methyl 3-ethyl-4-(methyl(1-methyl-1H-imidazo[4,5-c]pyridin-6-yl)amino)benzyl carbamate] | 0.01 to 100 nM | 501 to 1000 nM | 101 to 500 nM | 101 to 500 nM |
| CCc1cc(C2=CCN(C(=O)CCC#N)CC2)ccc1N(C)c1cc2c(cn1)ncn2C [Compound 196, 4-(4-(3-ethyl-4-(methyl(1-methyl-1H-imidazo[4,5-c]pyridin-6-yl)amino)phenyl)-5,6-dihydropyridin-1(2H)-yl)-4-oxobutanenitrile] | 0.01 to 100 nM | 501 to 1000 nM | 101 to 500 nM | 0.01 to 100 nM |
| CCc1cc(C2=CCN(C(=O)C3(C#N)CC3)CC2)ccc1N(C)c1cc2c(cn1)ncn2C [Compound 198, 1-(4-(3-ethyl-4-(methyl(1-methyl-1H-imidazo[4,5-c]pyridin-6-yl)amino)phenyl)-1,2,3,6-tetrahydropyridine-1-carbonyl)cyclopropane-carbonitrile] | 0.01 to 100 nM | 501 to 1000 nM | 101 to 500 nM | 0.01 to 100 nM |
| CCc1cc(C2=CCN(C(=O)CC(C)(C)O)CC2)ccc1N(C)c1cc2c(cn1)ncn2C [Compound 200, 1-(4-(3-ethyl-4-(methyl(1-methyl-1H-imidazo[4,5-c]pyridin-6-yl)amino)phenyl)-5,6-dihydropyridin-1(2H)-yl)-3-hydroxy-3-methylbutan-1-one] | 0.01 to 100 nM | 501 to 1000 nM | 101 to 500 nM | 0.01 to 100 nM |
| CCc1cc(C2=CCN(C(=O)NC3(C)CC3)CC2)ccc1N(C)c1cc2c(cn1)ncn2C [Compound 202, 4-(3-ethyl-4-(methyl(1-methyl-1H-imidazo[4,5-c]pyridin-6-yl)amino)phenyl)-N-(1-methylcyclopropyl)-5,6-dihydropyridine-1(2H)-carboxamide] | 0.01 to 100 nM | 1 to 500 nM | 101 to 500 nM | 0.01 to 100 nM |

Continued, values first:

| IC50 (human JAK1) | IC50 [1] | IC50 (human JAK3) | IC50 (human TYK2) | Compound |
| --- | --- | --- | --- | --- |
| 0.01 to 100 nM | 1 to 500 nM | 101 to 500 nM | 0.01 to 100 nM | CCc1cc(C2=CCOCC2)ccc1N(C)c1cc2c(cn1)ncn2C [Compound 153, N-(4-(3,6-dihydro-2H-pyran-4-yl)-2-ethylphenyl)-N,1-dimethyl-1H-imidazo[4,5-c]pyridin-6-amine] |
| 0.01 to 100 nM | > 1000 nM | > 1000 nM | 101 to 500 nM | CCc1cc(C2=CCN(C(=O)OC(C)(C)C)CC2)ccc1N(C)c1cc2c(cn1)ncn2C [Compound 154, tert-butyl 4-(3-ethyl-4-(methyl(1-methyl-1H-imidazo[4,5-c]pyridin-6-yl)amino)phenyl)-5,6-dihydropyridine-1(2H)-carboxylate] |
| 0.01 to 100 nM | 501 to 1000 nM | 101 to 500 nM | 0.01 to 100 nM | CCc1cc(-c2cnccc2Cl)ccc1N(C)c1cc2c(cn1)ncn2C [Compound 155, N-(4-(4-chloropyridin-3-yl)-2-ethylphenyl)-N,1-dimethyl-1H-imidazo[4,5-c]pyridin-6-amine] |
| 0.01 to 100 nM | 501 to 1000 nM | > 1000 nM | 0.01 to 100 nM | CCc1cc(-c2noc(CCC#N)n2)ccc1N(C)c1cc2c(cn1)ncn2C [Compound 156, 3-(3-(3-Ethyl-4-(methyl(1-methyl-1H-imidazo[4,5-c]pyridin-6-yl)amino)phenyl)-1,2,4-oxadiazol-5-yl)propanenitrile] |
| 0.01 to 100 nM | > 1000 nM | > 1000 nM | 0.01 to 100 nM | CCc1cc(-c2noc(COC)n2)ccc1N(C)c1cc2c(cn1)ncn2C [Compound 157, N-(2-ethyl-4-(5-(methoxymethyl)-1,2,4-oxadiazol-3-yl)phenyl)-N,1-dimethyl-1H-imidazo[4,5-c]pyridin-6-amine] |
| 0.01 to 100 nM | 1 to 500 nM | 101 to 500 nM | 0.01 to 100 nM | CCC(=O)N1CC=C(c2ccc(N(C)c3cc4c(cn3)ncn4C)c(CC)c2)CC1 [Compound 158, 1-(4-(3-ethyl-4-(methyl(1-methyl-1H-imidazo[4,5-c]pyridin-6-yl)amino)phenyl)-5,6-dihydropyridin-1(2H)-yl)propan-1-one] |
| 0.01 to 100 nM | > 1000 nM | 501 to 1000 nM | 101 to 500 nM | CCc1cc(C(O)C(F)(F)F)ccc1N(C)c1cc2c(cn1)ncn2C (centres unmarked) [Compound 159, 1-(3-Ethyl-4-(methyl(1-methyl-1H-imidazo[4,5-c]pyridin-6-yl)amino)phenyl)-2,2,2-trifluoroethanol] |
| 0.01 to 100 nM | > 1000 nM | > 1000 nM | > 1000 nM | CCc1cc(C(=O)NCCO)ccc1N(C)c1cc2c(cn1)ncn2C [Compound 160, 3-ethyl-N-(2-hydroxyethyl)-4-(methyl(1-methyl-1H-imidazo[4,5-c]pyridin-6-yl)amino)benzamide] |
| 0.01 to 100 nM | 501 to 1000 nM | 501 to 1000 nM | 501 to 1000 nM | CCc1cc(-c2cccc(C#N)c2)ccc1N(C)c1cc2c(cn1)ncn2C [Compound 163, 3′-ethyl-4′-(methyl(1-methyl-1H-imidazo[4,5-c]pyridin-6-yl)amino)biphenyl-3-carbonitrile] |
